In publication PMC7181641, “Aspartate aminotransferase Rv3722c governs aspartate-dependent nitrogen metabolism in Mycobacterium tuberculosis” (Nature Communications, 2020):

Experiments:
[1] = target: T1, Rv3722c (Mycobacterium tuberculosis, UniProt O69689)
[2] = target: T1, Rv3722c; remark: listed apart in the source

T1 sequence (O69689 whole entry): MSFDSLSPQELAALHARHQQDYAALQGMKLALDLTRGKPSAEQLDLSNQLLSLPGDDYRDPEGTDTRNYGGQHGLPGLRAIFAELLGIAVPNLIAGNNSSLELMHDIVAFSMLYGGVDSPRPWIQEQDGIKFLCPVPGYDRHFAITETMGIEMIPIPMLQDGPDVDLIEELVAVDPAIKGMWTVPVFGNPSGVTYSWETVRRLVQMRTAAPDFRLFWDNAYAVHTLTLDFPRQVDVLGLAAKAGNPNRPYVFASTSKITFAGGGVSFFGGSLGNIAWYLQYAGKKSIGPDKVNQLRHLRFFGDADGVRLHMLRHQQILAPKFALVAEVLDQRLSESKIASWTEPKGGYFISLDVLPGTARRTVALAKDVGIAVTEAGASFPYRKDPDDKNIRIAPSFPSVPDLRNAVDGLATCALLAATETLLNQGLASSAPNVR

N[C@@H](CCC(=O)O)C(=O)O [Glu]
X-ray crystal structure, 2.6 Å [1]: clear electron density of the amino acid in the active site

Cc1ncc(COP(=O)(O)O)c(C=O)c1O [pyridoxal phosphate]
X-ray crystal structure, 2.23 Å [2]: the external aldimine intermediate PLP-kynurenine (PLP-Kyn)

O=C(O)c1cc(O)c2ccccc2n1 [kynurenic acid]
X-ray crystal structure, 2.23 Å [2]: or the final keto acid product kynurenic acid (Kyna)

Nc1ccccc1C(=O)C[C@H](N)C(=O)O [kynurenine]
X-ray crystal structure, 2.23 Å [2]: chains were bound to either the external aldimine intermediate PLP-kynurenine (PLP-Kyn)
